Publication PMC8838197, “Coumarin-Resveratrol-Inspired Hybrids as Monoamine Oxidase B Inhibitors: 3-Phenylcoumarin versus trans-6-Styrylcoumarin” (Molecules, 2022)
Like-named read-outs stand apart in the source and are kept apart here.

Tests used:
hMAO-B = molecular target: T1, hMAO-B (Homo sapiens, UniProt P27338); test: hMAO-B inhibition, Amplex Red MAO assay, recombinant enzyme
T1 sequence (P27338 1-520): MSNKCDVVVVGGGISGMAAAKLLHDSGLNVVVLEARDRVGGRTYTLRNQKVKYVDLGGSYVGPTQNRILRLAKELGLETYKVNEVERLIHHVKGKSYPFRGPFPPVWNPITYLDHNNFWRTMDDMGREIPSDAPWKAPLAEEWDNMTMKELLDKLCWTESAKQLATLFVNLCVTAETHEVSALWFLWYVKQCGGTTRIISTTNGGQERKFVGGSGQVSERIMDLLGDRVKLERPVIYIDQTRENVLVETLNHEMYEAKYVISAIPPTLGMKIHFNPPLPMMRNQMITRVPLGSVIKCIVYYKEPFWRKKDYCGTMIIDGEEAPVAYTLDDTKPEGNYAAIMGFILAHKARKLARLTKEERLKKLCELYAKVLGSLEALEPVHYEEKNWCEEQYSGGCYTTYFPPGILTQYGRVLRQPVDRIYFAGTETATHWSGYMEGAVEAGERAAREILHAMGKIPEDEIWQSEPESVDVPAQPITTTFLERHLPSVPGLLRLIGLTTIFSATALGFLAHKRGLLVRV

hMAO-A = molecular target: T2, hMAO-A (Homo sapiens, UniProt P21397); test: hMAO-A inhibition, Amplex Red MAO assay, recombinant enzyme
T2 sequence (P21397 1-527): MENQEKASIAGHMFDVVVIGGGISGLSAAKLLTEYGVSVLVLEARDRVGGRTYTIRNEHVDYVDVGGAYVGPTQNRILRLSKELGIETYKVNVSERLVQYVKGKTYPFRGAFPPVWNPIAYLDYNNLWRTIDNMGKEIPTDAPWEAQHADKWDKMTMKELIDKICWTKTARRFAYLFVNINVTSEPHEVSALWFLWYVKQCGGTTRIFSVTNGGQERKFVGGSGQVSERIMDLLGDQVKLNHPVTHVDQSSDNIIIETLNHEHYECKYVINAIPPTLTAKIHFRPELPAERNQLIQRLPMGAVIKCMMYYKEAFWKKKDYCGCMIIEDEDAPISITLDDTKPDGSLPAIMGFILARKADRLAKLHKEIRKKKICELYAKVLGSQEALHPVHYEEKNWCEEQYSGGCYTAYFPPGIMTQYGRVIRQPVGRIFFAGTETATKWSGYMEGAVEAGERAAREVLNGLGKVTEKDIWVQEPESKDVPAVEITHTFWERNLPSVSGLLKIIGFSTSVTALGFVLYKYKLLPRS

| IC50 (hMAO-B) [µM] | times more active on MAO-B than the best compound of the resveratrol derivative series of Kong et al. (hMAO-B; comparison with ref 13) | times more active on MAO-B than 3-phenylcoumarin (hMAO-B; ratio of IC50) | times more active on MAO-B than trans-resveratrol (hMAO-B; ratio of IC50) | melting point [°C] | Compound | S.I. (hMAO-B selectivity index = IC50 (hMAO-A)/IC50 (hMAO-B)) (hMAO-B) | pIC50 MAO-B Exp. (hMAO-B; Table 3) | IC50 (hMAO-B; read-out: IC50 hMAO-B, recombinant hMAO-B expressed in baculovirus-infected BTI insect cells, n = 5) [µM] | IC50 (hMAO-A) [µM] |
| --- | --- | --- | --- | --- | --- | --- | --- | --- | --- |
|  |  |  |  |  | O=c1oc2ccccc2cc1-c1ccccc1 [3-Phenylcoumarin] | >8.47 | 4.928 | 11.8 | > 100 |
| 0.11 | 110 | 107 | 267 | 134 to 135 | O=c1ccc2cc(/C=C/c3ccccc3)ccc2o1 [trans-6-Styrylcoumarin] | >909.09 |  |  | > 100 |
